According to patent US4317914A, “Oxazolines” (Hoffmann-La Roche Inc., priority 1979, dated 1982):

Tests used:
plasma glucose [1] = assay: Activity on plasma glucose after repeated oral administration, fasted rat (1); assay type: in vivo; conditions: for Plasma glucose 3 hours after the last of 5 oral medications: 5 × p.o., *p < 0.05, ***p < 0.001; for Plasma glucose 3 hours after the last medication: ***p < 0.001
Protocol: (§1) The preparations containing the test compound were administered to rats and mice as a suspension in 5% gun arabic (10 ml/kg) through a stomach probe. Dogs received the preparations orally in gelatin capsules. The blank values were ascertained from animals which received only the vehicle or a blank capsule. The medication was administered daily at 9:00 a.m. and 3:00 p.m.
(§2) The plasma glucose (Tables 1 and 3) was determined according to the hexokinase method. The plasma was obtained from heparinized blood after decapitating the rats (1) or by puncturing the vena saphena (2), or there was used a filtrate, made protein-free with perchloric acid, of blood removed from the tip of the tail (3), (4), (5). The glucose in the urine was determined directly. In the case of (1), (2) and (4), the feed was withdrawn with the first of five medications.

[2] = Toxicity, 10 day test in rats; conditions: rat, in vivo
plasma glucose [3] = assay: Activity on plasma glucose after repeated oral administration, fasted dog (2); assay type: in vivo; conditions: 5 administrations
Protocol: as §1, §2

[4] = Toxicity, 10 day test in mice; conditions: mouse, in vivo
blood glucose [5] = assay: Activity on blood glucose after repeated oral administration, obese-hyperglycemic mouse (5), quantitatively controlled feed supply; assay type: in vivo; conditions: 11 administrations
Protocol: as §1, §2
(§3) In the case of (3), female rats received 70 mg/kg of streptozotocin subcutaneously 2 weeks before the test. In the case of (3) and (5), quantitatively controlled feed supply existed.

blood glucose [6] = assay: Activity on blood glucose after repeated oral administration, obese-hyperglycemic mouse (4), feed withdrawn; assay type: in vivo; conditions: 294 mg/kg p.o., 5 administrations
Protocol: as §1, §2

blood glucose [7] = assay: Activity on blood glucose after repeated oral administration, diabetic rat (3), streptozotocin; assay type: in vivo; conditions: 132 mg/kg p.o., 7 administrations
Protocol: as §1, §2, §3

[8] = 88 mg/kg p.o., 5 administrations

Structure (SMILES): CN(C=O)c1ccc(C2OC(C)(C)N=C2c2ccccc2)cc1 (centres unmarked) [C, 4'-(2,2-dimethyl-4-phenyl-3-oxazolin-5-yl)-N-methylformanilide]
- Plasma glucose 3 hours after the last of 5 oral medications (plasma glucose [1]; 300 μmol/kg): 87 % of the blank values

Structure (SMILES): CN(C)c1ccc(C2OC(C)(C)N=C2c2ccccc2)cc1 (centres unmarked) [A, 5-[p-(dimethylamino)phenyl]-2,2-dimethyl-4-phenyl-3-oxazoline]
- LD50 at 240 h [2]: 970 mg/kg
- Plasma glucose 0 hours after the last medication (plasma glucose [3]; 29 mg/kg p.o., **p < 0.01): 82 % of blank values
- Plasma glucose 1 hour after the last medication (plasma glucose [3]; 29 mg/kg p.o., *p < 0.05): 75 % of blank values
- Plasma glucose 3 hours after the last medication (plasma glucose [3]; 29 mg/kg p.o., ***p < 0.001): 77 % of blank values
- Plasma glucose 6 hours after the last medication (plasma glucose [3]; 29 mg/kg p.o., **p < 0.01): 74 % of blank values
- Plasma glucose 24 hours after the last medication (plasma glucose [3]; 29 mg/kg p.o.): 84 % of blank values
- Plasma glucose 0 hours after the last medication (plasma glucose [3]; 88 mg/kg p.o., **p < 0.01): 77 % of blank values
- Plasma glucose 1 hour after the last medication (plasma glucose [3]; 88 mg/kg p.o.): 75 % of blank values
- Plasma glucose 3 hours after the last medication (plasma glucose [3]; 88 mg/kg p.o., *p < 0.05): 78 % of blank values
- Plasma glucose 6 hours after the last medication (plasma glucose [3]; 88 mg/kg p.o., *p < 0.05): 76 % of blank values
- Plasma glucose 24 hours after the last medication (plasma glucose [3]; 88 mg/kg p.o., *p < 0.05): 74 % of blank values
- LD50 at 240 h [4]: 220 mg/kg
- Plasma glucose 3 hours after the last of 5 oral medications (plasma glucose [1]; 300 μmol/kg): 78 % of the blank values
- Plasma glucose 3 hours after the last of 5 oral medications (plasma glucose [1]; 1000 μmol/kg): 58 % of the blank values
- Plasma glucose 0 hours after the last medication (plasma glucose [1]; 88 mg/kg p.o., 5 administrations, 0 h): 76 % of blank values
- Plasma glucose 1 hour after the last medication (plasma glucose [1]; [8]): 76 % of blank values
- Plasma glucose 3 hours after the last medication (plasma glucose [1]; [8]): 78 % of blank values
- Plasma glucose 1 hour after the last medication (plasma glucose [1]; 294 mg/kg p.o., 5 administrations, **p < 0.01): 57 % of blank values
- Plasma glucose 3 hours after the last medication (plasma glucose [1]; 294 mg/kg p.o., 5 administrations): 58 % of blank values
- Blood glucose 0 hours after the last medication (blood glucose [5]; 44 mg/kg p.o.): 83 % of blank values
- Blood glucose 1 hour after the last medication (blood glucose [5]; 44 mg/kg p.o.): 77 % of blank values
- Blood glucose 3 hours after the last medication (blood glucose [5]; 44 mg/kg p.o.): 84 % of blank values
- Blood glucose 0 hours after the last medication (blood glucose [5]; 132 mg/kg p.o., **p < 0.01): 66 % of blank values
- Blood glucose 1 hour after the last medication (blood glucose [5]; 132 mg/kg p.o., *p < 0.05): 61 % of blank values
- Blood glucose 3 hours after the last medication (blood glucose [5]; 132 mg/kg p.o., ***p < 0.001): 55 % of blank values
- Blood glucose 0 hours after the last medication (blood glucose [6]; 0 h, *p < 0.05): 63 % of blank values
- Blood glucose 1 hour after the last medication (blood glucose [6]; 1 h): 74 % of blank values
- Blood glucose 3 hours after the last medication (blood glucose [6]; 3 h): 71 % of blank values
- Blood glucose 6 hours after the last medication (blood glucose [6]; 6 h, ***p < 0.001): 45 % of blank values
- Blood glucose 0 hours after the last medication (blood glucose [7]; 0 h): 101 % of blank values
- Blood glucose 1 hour after the last medication (blood glucose [7]; 1 h): 101 % of blank values
- Blood glucose 3 hours after the last medication (blood glucose [7]; 3 h): 90 % of blank values
- Blood glucose 6 hours after the last medication (blood glucose [7]; 6 h, *p < 0.05): 86 % of blank values

Structure (SMILES): CNc1ccc(C2OC(C)(C)N=C2c2ccccc2)cc1 (centres unmarked) [D, 5-[p-(methylamino)phenyl]-2,2-dimethyl-4-phenyl-3-oxazoline]
- Plasma glucose 3 hours after the last of 5 oral medications (plasma glucose [1]; 300 μmol/kg): 86 % of the blank values
- Plasma glucose 3 hours after the last of 5 oral medications (plasma glucose [1]; 1000 μmol/kg): 81 % of the blank values

Structure (SMILES): CCN(CC)c1ccc(C2OC(C)(C)N=C2c2ccccc2)cc1 (centres unmarked) [B, 5-[p-(diethylamino)-phenyl]-2,2-dimethyl-4-phenyl-3-oxazoline]
- Plasma glucose 3 hours after the last of 5 oral medications (plasma glucose [1]; 300 μmol/kg): 91 % of the blank values
- Plasma glucose 3 hours after the last of 5 oral medications (plasma glucose [1]; 1000 μmol/kg): 77 % of the blank values
